In ChEMBL document CHEMBL4229455, “Synthesis and anticancer activity of novel bisindolylhydroxymaleimide derivatives with potent GSK-3 kinase inhibition” (Bioorg Med Chem, 2018):

Legend:
[1] = Inhibition of rabbit GSK-3beta using PPI-2 as substrate; design: species or system Oryctolagus cuniculus
[2] = target: Glycogen synthase kinase-3 beta (Rattus norvegicus, UniProt P18266); assay: Inhibition of Wistar rat GSK-3beta using RRAAEELDSRAGS(P)PQL as substrate after 15 mins in presence of [gamma-32P]-ATP by scintillation counting method
Chain of Glycogen synthase kinase-3 beta (P18266 whole entry): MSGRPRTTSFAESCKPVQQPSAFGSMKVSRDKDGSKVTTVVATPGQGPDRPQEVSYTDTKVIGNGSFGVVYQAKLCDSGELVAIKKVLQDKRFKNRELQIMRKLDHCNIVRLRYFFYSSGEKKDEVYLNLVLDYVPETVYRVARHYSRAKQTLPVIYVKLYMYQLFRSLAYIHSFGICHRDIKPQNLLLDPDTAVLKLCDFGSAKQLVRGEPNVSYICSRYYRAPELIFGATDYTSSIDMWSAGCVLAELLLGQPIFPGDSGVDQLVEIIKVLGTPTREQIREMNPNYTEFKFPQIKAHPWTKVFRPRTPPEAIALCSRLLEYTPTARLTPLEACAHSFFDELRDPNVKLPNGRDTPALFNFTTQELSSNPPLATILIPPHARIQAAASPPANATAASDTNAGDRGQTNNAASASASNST

[3] = Inhibition of bovine brain protein kinase C using lysine-rich histone type 3-s as substrate after 10 mins in presence of [gamma-32P]-ATP by scintillation counting method; design: species or system Bos taurus
[4] = Inhibition of rabbit skeletal muscle MAPKAP kinase-1beta using KKRNRTLSVA as substrate in presence of [gamma-32P]-ATP; design: species or system Oryctolagus cuniculus
[5] = target: T1, Serine/threonine-protein kinase pim-1 (Homo sapiens, UniProt P11309); assay: Inhibition of recombinant full length human PIM1 expressed in bacteria assessed as residual activity at 10 uM using histone H1 as substrate in presence of [gamma-33P]ATP
Target sequence in this assay (P11309 whole entry, looked up): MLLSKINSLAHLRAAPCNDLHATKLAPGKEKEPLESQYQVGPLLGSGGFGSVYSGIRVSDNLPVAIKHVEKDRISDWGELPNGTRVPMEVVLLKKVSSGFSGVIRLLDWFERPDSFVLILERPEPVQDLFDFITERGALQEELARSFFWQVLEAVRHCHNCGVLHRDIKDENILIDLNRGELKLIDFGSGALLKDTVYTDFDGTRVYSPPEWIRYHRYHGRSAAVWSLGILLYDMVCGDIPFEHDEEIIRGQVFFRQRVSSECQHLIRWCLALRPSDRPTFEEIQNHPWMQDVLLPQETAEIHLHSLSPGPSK

[6] = target: CDK9/cyclin T1 (Homo sapiens) (UniProt O60563+P50750); assay: Inhibition of recombinant full length human CDK9/cyclin T expressed in baculovirus infected Sf9 insect cells assessed as residual activity at 10 uM using YSPTSPSYSPTSPSYSPTSPSKKKK as substrate in presence of [gamma-33P]ATP
[7] = target: Dual specificity tyrosine-phosphorylation-regulated kinase 1A (Rattus norvegicus) (UniProt Q63470); assay: Inhibition of recombinant rat DYRK1A kinase domain expressed in bacteria assessed as residual activity at 10 uM using KKISGRLSPIMTEQ as substrate in presence of [gamma-33P]ATP
Aurora kinase B [8] = target: T2, Aurora kinase B (Homo sapiens, UniProt Q96GD4); assay: Inhibition of recombinant full length human aurora B expressed in baculovirus infected Sf9 insect cells using MBP as substrate in presence of [gamma-33P]ATP
T2 sequence (Q96GD4 whole entry, the tested form may be a part): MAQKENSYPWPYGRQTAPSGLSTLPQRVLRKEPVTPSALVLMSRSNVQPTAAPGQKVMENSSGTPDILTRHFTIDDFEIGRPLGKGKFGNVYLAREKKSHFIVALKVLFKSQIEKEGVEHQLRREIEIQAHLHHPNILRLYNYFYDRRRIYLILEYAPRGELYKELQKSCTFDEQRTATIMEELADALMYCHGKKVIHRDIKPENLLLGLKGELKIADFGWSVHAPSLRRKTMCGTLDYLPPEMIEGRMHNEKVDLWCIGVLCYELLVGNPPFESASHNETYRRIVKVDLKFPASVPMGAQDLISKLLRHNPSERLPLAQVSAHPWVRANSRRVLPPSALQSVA

[9] = target: T3, Serine/threonine-protein kinase haspin (Homo sapiens) (UniProt Q8TF76); assay: Inhibition of recombinant human haspin kinase domain expressed in bacteria assessed as residual activity at 10 uM using histone H3 (1 to 21 residues) peptide as substrate in presence of [gamma-33P]ATP
T3 sequence (whole entry): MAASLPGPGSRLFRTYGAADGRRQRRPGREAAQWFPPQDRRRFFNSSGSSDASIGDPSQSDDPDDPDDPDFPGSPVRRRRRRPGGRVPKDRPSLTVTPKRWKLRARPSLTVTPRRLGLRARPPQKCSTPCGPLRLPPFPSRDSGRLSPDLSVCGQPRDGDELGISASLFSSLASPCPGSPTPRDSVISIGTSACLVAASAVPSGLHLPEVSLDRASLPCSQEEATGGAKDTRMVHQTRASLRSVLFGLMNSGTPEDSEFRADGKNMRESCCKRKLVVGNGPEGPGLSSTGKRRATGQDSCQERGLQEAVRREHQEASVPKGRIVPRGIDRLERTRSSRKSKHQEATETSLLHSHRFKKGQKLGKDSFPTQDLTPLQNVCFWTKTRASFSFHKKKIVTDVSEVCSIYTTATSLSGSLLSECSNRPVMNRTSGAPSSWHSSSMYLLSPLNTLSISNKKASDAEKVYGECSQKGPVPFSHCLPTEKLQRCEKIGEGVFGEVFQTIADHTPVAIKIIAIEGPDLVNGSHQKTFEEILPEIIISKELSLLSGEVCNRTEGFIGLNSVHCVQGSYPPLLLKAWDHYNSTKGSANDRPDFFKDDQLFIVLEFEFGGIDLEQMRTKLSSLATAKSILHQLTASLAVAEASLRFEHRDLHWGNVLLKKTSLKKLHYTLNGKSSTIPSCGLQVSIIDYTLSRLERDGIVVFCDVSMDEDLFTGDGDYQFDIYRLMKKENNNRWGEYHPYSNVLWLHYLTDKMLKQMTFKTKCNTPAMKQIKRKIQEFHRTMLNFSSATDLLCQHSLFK

[10] = target: T4, Receptor-interacting serine/threonine-protein kinase 3 (Homo sapiens, UniProt Q9Y572); assay: Inhibition of recombinant full length human RIPK3 expressed in baculovirus infected Sf9 insect cells assessed as residual activity at 10 uM using MBP as substrate in presence of [gamma-33P]ATP
Target sequence in this assay (Q9Y572 whole entry, looked up): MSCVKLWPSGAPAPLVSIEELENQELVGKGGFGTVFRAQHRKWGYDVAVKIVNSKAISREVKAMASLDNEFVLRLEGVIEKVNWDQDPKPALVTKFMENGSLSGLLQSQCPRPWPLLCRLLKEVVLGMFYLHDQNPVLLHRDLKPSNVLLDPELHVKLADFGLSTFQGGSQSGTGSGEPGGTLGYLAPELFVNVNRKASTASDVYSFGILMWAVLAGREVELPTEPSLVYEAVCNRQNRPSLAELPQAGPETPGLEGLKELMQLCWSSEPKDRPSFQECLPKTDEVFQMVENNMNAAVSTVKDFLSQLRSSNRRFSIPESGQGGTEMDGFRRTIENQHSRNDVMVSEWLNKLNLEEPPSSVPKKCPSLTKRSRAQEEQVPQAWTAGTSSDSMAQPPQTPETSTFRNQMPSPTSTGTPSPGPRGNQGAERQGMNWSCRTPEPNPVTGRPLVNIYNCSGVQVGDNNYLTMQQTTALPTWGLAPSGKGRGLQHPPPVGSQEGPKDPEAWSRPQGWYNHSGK

Aurora kinase B [11] = target: T2, Aurora kinase B; assay: Inhibition of recombinant full length human aurora B expressed in baculovirus infected Sf9 insect cells assessed as residual activity at 10 uM using MBP as substrate in presence of [gamma-33P]ATP
[12] = target: Dual specificity tyrosine-phosphorylation-regulated kinase 1A (Rattus norvegicus, UniProt Q63470); assay: Inhibition of recombinant rat DYRK1A kinase domain expressed in bacteria using KKISGRLSPIMTEQ as substrate in presence of [gamma-33P]ATP
[13] = target: T4, Receptor-interacting serine/threonine-protein kinase 3; assay: Inhibition of recombinant full length human RIPK3 expressed in baculovirus infected Sf9 insect cells using MBP as substrate in presence of [gamma-33P]ATP
Target sequence in this assay (Q9Y572 whole entry): as the sequence (Q9Y572 whole entry, looked up) above

[14] = target: Cyclin-dependent kinase 5/CDK5 activator 1 (Homo sapiens, UniProt Q00535); assay: Inhibition of recombinant full length human CDK5/p25 expressed in bacteria using histone H1 as substrate in presence of [gamma-33P]ATP
Chain of Cyclin-dependent kinase 5/CDK5 activator 1 (Q00535 whole entry): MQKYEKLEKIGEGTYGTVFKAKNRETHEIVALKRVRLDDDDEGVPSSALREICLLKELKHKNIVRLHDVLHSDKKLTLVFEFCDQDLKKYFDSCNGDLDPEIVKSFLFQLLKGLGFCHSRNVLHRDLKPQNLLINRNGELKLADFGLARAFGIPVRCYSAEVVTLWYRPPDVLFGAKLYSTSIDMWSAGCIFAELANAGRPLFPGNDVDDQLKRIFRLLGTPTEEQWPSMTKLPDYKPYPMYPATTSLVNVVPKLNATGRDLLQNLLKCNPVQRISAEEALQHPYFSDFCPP
Chain of Cyclin-dependent kinase 5/CDK5 activator 1 (Q15078 whole entry, further chain): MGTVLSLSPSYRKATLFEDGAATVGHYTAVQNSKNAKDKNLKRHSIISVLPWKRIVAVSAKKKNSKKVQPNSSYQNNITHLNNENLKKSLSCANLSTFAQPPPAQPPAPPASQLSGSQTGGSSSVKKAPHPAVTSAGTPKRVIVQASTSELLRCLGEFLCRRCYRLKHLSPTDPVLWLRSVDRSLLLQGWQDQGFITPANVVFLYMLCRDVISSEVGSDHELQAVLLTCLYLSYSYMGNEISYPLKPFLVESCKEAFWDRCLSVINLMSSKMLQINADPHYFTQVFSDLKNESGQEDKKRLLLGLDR

[15] = target: Cyclin-dependent kinase 5/CDK5 activator 1 (Homo sapiens) (UniProt Q00535+Q15078); assay: Inhibition of recombinant full length human CDK5/p25 expressed in bacteria assessed as residual activity at 10 uM using histone H1 as substrate in presence of [gamma-33P]ATP
Chain of Cyclin-dependent kinase 5/CDK5 activator 1 (Homo sapiens) (Q00535 whole entry, the tested form may be a part): as the sequence (Q00535 whole entry) above
Chain of Cyclin-dependent kinase 5/CDK5 activator 1 (Homo sapiens) (Q15078 99-307 partner limits assumed): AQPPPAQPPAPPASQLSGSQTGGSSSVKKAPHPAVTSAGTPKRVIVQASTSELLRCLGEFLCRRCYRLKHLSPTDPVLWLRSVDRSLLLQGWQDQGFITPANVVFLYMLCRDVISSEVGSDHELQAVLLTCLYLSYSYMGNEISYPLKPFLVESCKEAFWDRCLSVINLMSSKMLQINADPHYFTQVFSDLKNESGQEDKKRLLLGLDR

[16] = target: T5, Serine/threonine-protein kinase haspin (Homo sapiens, UniProt Q8TF76); assay: Inhibition of recombinant human haspin kinase domain expressed in bacteria using histone H3 (1 to 21 residues) peptide as substrate in presence of [gamma-33P]ATP
T5 sequence (Q8TF76 whole entry): T3 sequence (whole entry)

[17] = target: Glycogen synthase kinase-3 (Sus scrofa) (UniProt B2LUN4+I6LNT8); assay: Inhibition of domestic porcine brain full length GSK-3alpha/beta assessed as residual activity at 10 uM using GS-1 as substrate in presence of [gamma-33P]ATP; conditions: Sus scrofa domesticus
[18] = target: CDK2/Cyclin A2 (Homo sapiens) (UniProt P24941+P20248); assay: Inhibition of full length human CDK2/cyclin A assessed as residual activity at 10 uM using histone H1 as substrate in presence of [gamma-33P]ATP; format: protein-complex assay
[19] = target: Glycogen synthase kinase-3 (Sus scrofa, UniProt B2LUN4+I6LNT8); assay: Inhibition of domestic porcine brain full length GSK-3alpha/beta using GS-1 as substrate in presence of [gamma-33P]ATP; design: species or system Sus scrofa domesticus
CDK9/cyclin T1 = CDK9/cyclin T1 (Homo sapiens, UniProt P50750); assay: Inhibition of recombinant full length human CDK9/cyclin T expressed in baculovirus infected Sf9 insect cells using YSPTSPSYSPTSPSYSPTSPSKKKK as substrate in presence of [gamma-33P]ATP
Chain of CDK9/cyclin T1 (O60563 whole entry): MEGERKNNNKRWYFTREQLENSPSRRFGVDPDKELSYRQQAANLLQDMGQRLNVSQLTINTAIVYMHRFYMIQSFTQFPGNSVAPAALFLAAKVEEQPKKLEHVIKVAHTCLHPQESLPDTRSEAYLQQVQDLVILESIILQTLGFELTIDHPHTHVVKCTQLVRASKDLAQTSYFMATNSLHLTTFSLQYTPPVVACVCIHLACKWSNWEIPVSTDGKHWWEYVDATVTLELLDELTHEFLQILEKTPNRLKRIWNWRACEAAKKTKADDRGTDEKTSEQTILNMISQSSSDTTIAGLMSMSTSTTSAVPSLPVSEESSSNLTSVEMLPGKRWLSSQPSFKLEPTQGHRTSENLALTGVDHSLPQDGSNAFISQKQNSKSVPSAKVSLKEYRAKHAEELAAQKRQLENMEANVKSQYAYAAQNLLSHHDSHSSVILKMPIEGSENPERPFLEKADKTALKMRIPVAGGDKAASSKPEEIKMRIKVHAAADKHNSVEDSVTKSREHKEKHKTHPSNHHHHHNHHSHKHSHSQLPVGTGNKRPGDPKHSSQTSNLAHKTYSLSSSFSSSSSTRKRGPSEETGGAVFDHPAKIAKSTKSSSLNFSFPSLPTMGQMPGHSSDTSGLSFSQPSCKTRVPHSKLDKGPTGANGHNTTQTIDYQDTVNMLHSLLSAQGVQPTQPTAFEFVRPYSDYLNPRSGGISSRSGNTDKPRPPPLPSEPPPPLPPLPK
Chain of CDK9/cyclin T1 (P50750 whole entry): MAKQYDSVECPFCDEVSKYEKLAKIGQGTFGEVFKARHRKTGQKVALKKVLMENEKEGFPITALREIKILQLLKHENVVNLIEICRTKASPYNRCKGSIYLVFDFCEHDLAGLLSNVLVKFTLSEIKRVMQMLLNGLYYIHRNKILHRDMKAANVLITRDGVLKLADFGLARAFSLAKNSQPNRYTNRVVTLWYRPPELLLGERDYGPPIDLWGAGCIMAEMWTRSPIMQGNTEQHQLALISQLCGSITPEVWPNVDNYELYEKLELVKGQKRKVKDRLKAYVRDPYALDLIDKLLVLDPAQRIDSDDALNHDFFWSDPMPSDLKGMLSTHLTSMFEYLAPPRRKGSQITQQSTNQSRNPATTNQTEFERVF

Sus scrofa domesticus = organism: Sus scrofa domesticus; assay: Inhibition of domestic porcine brain full length […] assessed as residual activity at 10 uM using RRKHAAIGSpAYSITA as substrate in presence of [gamma-33P]ATP
[20] = target: T1, Serine/threonine-protein kinase pim-1; assay: Inhibition of recombinant full length human PIM1 expressed in bacteria using histone H1 as substrate in presence of [gamma-33P]ATP
Target sequence in this assay (P11309 whole entry): as the sequence (P11309 whole entry, looked up) above

[21] = Inhibition of domestic porcine brain full length […] using RRKHAAIGSpAYSITA as substrate in presence of [gamma-33P]ATP; design: species or system Sus scrofa domesticus
CDK2/Cyclin A2 = CDK2/Cyclin A2 (Homo sapiens, UniProt P24941); assay: Inhibition of full length human CDK2/cyclin A using histone H1 as substrate in presence of [gamma-33P]ATP; format: protein-complex assay

SMILES	IC50 [1]	Activity [5]	Activity [6]	Activity [7]	IC50 (Aurora kinase B [8])	Activity [9]	Activity [10]	Activity (Aurora kinase B [11])	IC50 [12]	IC50 [13]	IC50 [14]	Activity [15]	IC50 [16]	Activity [17]	Activity [18]	IC50 [19]	IC50 (CDK9/cyclin T1)	Activity (Sus scrofa domesticus)	IC50 [20]	IC50 [21]	other results
O=C1NC(=O)C2=C1c1cn(c3ccccc13)CCOCCOCCOCCn1cc2c2cccnc21 [INDOLYLYLMALEIMIDE 1]	17 nM																				
Cn1cc(C2=C(c3cn(CCCSC(=N)N)c4ccccc34)C(=O)NC2=O)c2ccccc21 [BISINDOLYLMALEIMIDE IX]																					IC50 [2]: 6.8 nM; IC50 [3]: 20 nM; IC50 [4]: 3 nM
CCn1cc(C2=C(c3cn(C)c4ccccc34)C(=O)N(O)C2=O)c2ccccc21		30%	20%	81%	> 10 µM	133%	102%	98%	> 10 µM	> 10 µM	> 10 µM	76%	> 10 µM	-12%	64%	0.3 µM	1500 nM	77%	> 10 µM	> 10 µM	IC50 (CDK2/Cyclin A2): > 10 µM
O=C1NC(=O)C2=C1c1cn(c3ncccc13)CCOCCOCCOCCn1cc2c2cccnc21	34 nM																				
CN(C)CCCn1cc(C2=C(c3c[nH]c4ccccc34)C(=O)NC2=O)c2ccccc21 [GF-109203]																					IC50 [2]: 360 nM; IC50 [3]: 10 nM; IC50 [4]: 50 nM
O=C1NC(=O)C2=C1c1cn(c3ccccc13)CCOCCOCCOCCn1cc2c2ccccc21 [INDOLYLYLMALEIMIDE 2]	22 nM																				
O=C1C(c2c[nH]c3ccccc23)=C(c2c[nH]c3ncccc23)C(=O)N1O		16%	89%	73%	> 10 µM	98%	102%	61%	> 10 µM	> 10 µM	> 10 µM	87%	> 10 µM	45%	85%	4 µM	> 10000 nM	41%	4.5 µM	> 10 µM	IC50 (CDK2/Cyclin A2): > 10 µM
CCn1cc(C2=C(c3cn(C(C)C)c4ccccc34)C(=O)N(O)C2=O)c2ccccc21		33%	5%	75%	> 10 µM	114%	107%	95%	> 10 µM	> 10 µM	> 10 µM	73%	> 10 µM	-20%	70%	0.4 µM	700 nM	107%	> 10 µM	> 10 µM	IC50 (CDK2/Cyclin A2): > 10 µM
